# Data published in US20080090805A1, “CB-1 MODULATING COMPOUNDS AND THEIR USE” (ACADIA PHARMACEUTICALS INC., priority 2005, published 2008).
# Columns and labels:
# [1] = Clearance study, liver microsomes (mice); settings: mouse, pH 7.4
# [2] = Clearance study, liver microsomes (human); settings: pH 7.4
# [3] = Clearance study, liver microsomes (rats); settings: rat, pH 7.4
Compound,microsomal CLint at 1 μM [1],microsomal CLint at 1 μM [2],microsomal CLint at 1 μM [3]
O=C(NCc1cccnc1)c1ccc2c(c1)N=C(c1ccc(Br)cc1)c1ccccc1S2 [drawing 1728],83 µL/min/mg,39 µL/min/mg,70 µL/min/mg
O=C(NCc1cccnc1)c1ccc2c(c1)N=C(c1ccc(F)cc1)c1ccccc1S2 [drawing 1724],101 µL/min/mg,61 µL/min/mg,107 µL/min/mg
CCCCNC(=O)c1cc2c(cc1O)Sc1ccccc1C(c1ccc(Cl)cc1)=N2 [drawing 1672],12 µL/min/mg,–,7 µL/min/mg
CCCCNC(=O)c1ccc2c(c1)N=C(c1ccc(Cl)cc1)c1sccc1S2 [drawing 1717],79 µL/min/mg,–,–
O=C(NCCc1ccc(Cl)cc1)c1ccc2c(c1)N=C(N1CCC(F)CC1)c1ccccc1S2 [drawing 1734],–,476 µL/min/mg,670 µL/min/mg
CCN(CCNC(=O)c1ccc2c(c1)N=C(c1ccc(F)cc1)c1ccccc1S2)c1ccccc1 [drawing 1749],–,278 µL/min/mg,484 µL/min/mg
CCCCNC(=O)c1cnc2c(n1)N=C(c1ccccc1)c1ccccc1S2 [drawing 1722],–,38 µL/min/mg,44 µL/min/mg
CC(C)CNC(=O)c1ccc2c(c1)N=C(c1cccc(Cl)c1)c1ccccc1S2 [drawing 1795],69 µL/min/mg,–,–
O=C(NCCc1cccc(Cl)c1)c1ccc2c(c1)N=C(c1ccc(F)cc1)c1ccccc1S2 [drawing 1768],–,37 µL/min/mg,126 µL/min/mg
O=C(NCCc1cccc(Cl)c1)c1ccc2c(c1)N=C(c1ccc(Cl)cc1)c1ccccc1S2 [drawing 1766],–,56 µL/min/mg,116 µL/min/mg
O=C(NCCc1ccc(Cl)cc1)c1ccc2c(c1)N=C(N1CCC(F)(F)CC1)c1ccccc1S2 [drawing 1802],–,343 µL/min/mg,289 µL/min/mg
O=C(NCc1ccccc1Br)c1ccc2c(c1)N=C(c1ccc(Cl)cc1)c1ccccc1S2 [drawing 1788],–,10 µL/min/mg,36 µL/min/mg
O=C(NCCc1ccc(Cl)cc1)c1ccc2c(c1)N=C(N1CCCCC1)c1ccccc1S2 [drawing 1783],–,434 µL/min/mg,506 µL/min/mg
O=C(NCCc1ccccc1)c1ccc2c(c1)N=C(c1ccc(F)cc1)c1ccccc1S2 [drawing 1773],–,109 µL/min/mg,274 µL/min/mg
O=C(NCc1cccc(Cl)c1)c1ccc2c(c1)N=C(N1CCC(F)(F)CC1)c1ccccc1S2 [drawing 1800],120 µL/min/mg,–,–
O=C(NCCc1ccc(Cl)cc1)c1ccc2c(c1)N=C(c1cccc(Cl)c1)c1ccccc1S2 [drawing 1739],–,62 µL/min/mg,83 µL/min/mg
O=C(NCCc1ccc(Cl)cc1)c1ccc2c(c1)N=C(C1CCCCC1)c1ccccc1S2 [drawing 1737],–,138 µL/min/mg,230 µL/min/mg
O=C(NCCc1ccccc1)c1ccc2c(c1)N=C(c1ccc(Cl)cc1)c1ccccc1S2 [drawing 1745],–,62 µL/min/mg,144 µL/min/mg
Cc1csc(CNC(=O)c2ccc3c(c2)N=C(c2ccc(Cl)s2)c2ccccc2S3)c1 [drawing 1707],–,27 µL/min/mg,90 µL/min/mg
Cc1ccsc1C1=Nc2cc(C(=O)NCCCC(F)(F)F)ccc2Sc2ccccc21 [drawing 1701],–,379 µL/min/mg,297 µL/min/mg
CC(C)CNC(=O)c1ccc2c(c1)N=C(c1ccc(Cl)s1)c1ccccc1S2 [drawing 1681],412 µL/min/mg,–,–
O=C(NCc1ccc(F)cc1)c1ccc2c(c1)N=C(c1ccc(Cl)cc1)c1ccccc1S2(=O)=O [drawing 1776],–,13 µL/min/mg,17 µL/min/mg
O=C(NCCCC(F)(F)F)c1ccc2c(c1)N=C(c1cccc(F)c1)c1ccccc1S2 [drawing 1719],–,24 µL/min/mg,182 µL/min/mg
CCCCNC(=O)c1ccc2c(c1)N=C(c1cccc(Cl)c1)c1cc(Cl)ccc1S2 [drawing 1750],–,13 µL/min/mg,52 µL/min/mg
CC(C)CNC(=O)c1ccc2c(c1)N=C(c1ccc(Cl)cn1)c1ccc(Cl)cc1S2 [drawing 1806],–,13 µL/min/mg,135 µL/min/mg
O=C(NCc1cccc(Cl)c1)c1ccc2c(c1)N=C(c1cccc(Cl)c1)c1ccccc1S2 [drawing 1729],–,36 µL/min/mg,74 µL/min/mg
Cc1cccc(C2=Nc3cc(C(=O)NCc4ccc(C)o4)ccc3Sc3ccccc32)n1 [drawing 1789],–,114 µL/min/mg,632 µL/min/mg
CC(C)CNC(=O)c1ccc2c(c1)N=C(c1ccc(Cl)cc1)c1ccc(Cl)cc1S2 [drawing 1718],–,4 µL/min/mg,37 µL/min/mg
